Assay results published in patent US20240317758A1 (Halia Therapeutics, Inc., priority 2021, published 2024).

Columns and labels:
IL-1β release = IL-1β release assay (THP-1 cells, PMA, LPS, nigericin); type: cell-based; settings: Homo sapiens, LPS 250 ng/mL, nigericin 20 μM, cleaved IL-1β in media
Protocol: Approximately 1.5 million THP-1 cells were plated in each well of a 6-well TC plate and incubated with 40 nM PMA in RPMI (10% FBS, 1% Penstrep) for 24 hours. The media was then removed and cells were rested in RPMI (10% FBS, 1% Penstrep) for 24 hours after which time the media was removed and cells were pre-treated for 2 hours with various concentrations of compounds of interest (typically serial 3-fold dilution in RPMI+5% FBS, concentrations ranging from 1 μM to 0.5 nM) in RPMI (5% FBS). The media was again removed and cells were incubated with 250 ng/mL LPS and compounds of interest (concentrations as above) in RMPI (5% FBS) for 2 hours. The media was removed for a last time and cells were incubated with 20 μM nigericin and compounds of interest (concentrations as above) in Opti-MEM for 30 minutes. Cell media was then collected and the amount of cleaved IL-1β was determined using a JESS instrument (Protein Simple) and standard protocols. Cleaved Il-1β antibody was obtained from Cell Signaling (catalogue #83186S) and was used at 1:20 dilution in antibody diluent 2. Protein Simple 1× anti-Rabbit HRP secondary antibody was used along with Protein Simple luminol and peroxide for chemiluminescent detection. Primary antibody incubation time was increased from 30 minutes to 60 minutes.

[1] = target: T1, full-length recombinant human NEK7 (Homo sapiens, UniProt Q8TDX7); assay: NEK7 enzymatic assay; type: biochemical; settings: recombinant human NEK7, casein substrate, radiolabelled ATP
T1 construct: full-length recombinant human NEK7; GST (N); purchased SignalChem NO9-10G; host or cells: Sf9 insect cells (baculovirus)
In short: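 Full-length GST-tagged human NEK7 from Sf9 cells (assay concentration 70 nM) was used with casein (assay concentration 20 μM) in Hepes pH 7.5 buffer, 1% DMSO, and compound (3-fold dilutions, 10 μM to 0.5 nM) was preincubated 20 min at room temperature. Radiolabelled ATP was added for 2 h, phosphorylation was read on P81 paper, and IC50 was fitted from % activity remaining versus vehicle.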

T1 sequence (Q8TDX7 whole entry): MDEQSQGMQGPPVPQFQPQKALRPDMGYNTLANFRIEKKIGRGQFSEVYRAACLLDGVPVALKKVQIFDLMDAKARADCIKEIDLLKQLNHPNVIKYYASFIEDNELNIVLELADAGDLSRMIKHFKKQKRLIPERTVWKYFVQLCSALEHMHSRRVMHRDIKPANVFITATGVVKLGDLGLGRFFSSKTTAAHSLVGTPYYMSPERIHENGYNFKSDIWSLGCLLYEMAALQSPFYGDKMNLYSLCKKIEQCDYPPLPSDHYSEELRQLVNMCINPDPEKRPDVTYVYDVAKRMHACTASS

## Nc1ncnc2c1c(-c1ccc(NC(=O)Nc3ccc(CN4CCNCC45CC5)c(C(F)(F)F)c3)c(F)c1)cn2C1CC1 [Example I-66, 1-(4-((4,7-diazaspiro[2.5]octan-4-yl)methyl)-3-(trifluoromethyl)phenyl)-3-(4-(4-amino-7-cyclopropyl-7H-pyrrolo[2,3-d]pyrimidin-5-yl)-2-fluorophenyl)urea]
IL-1β release
  IC50: 250 to 1000 nM
[1]
  IC50: < 100 nM

## CN1CCC(n2cc(-c3ccc(NC(=O)Nc4ccc(CN5CCN(C)CC5)c(C(F)(F)F)c4)c(F)c3)c3c(N)ncnc32)CC1 [Example I-21, 1-(4-(4-amino-7-(1-methylpiperidin-4-yl)-7H-pyrrolo[2,3-d]pyrimidin-5-yl)-2-fluorophenyl)-3-(4-((4-methylpiperazin-1-yl)methyl)-3-(trifluoromethyl)phenyl)urea]
IL-1β release
  IC50: > 1000 nM
[1]
  IC50: < 100 nM

## Nc1ncnc2c1c(-c1ccc(NC(=O)Nc3ccc(CN4CCC(N)CC4)c(C(F)(F)F)c3)c(F)c1)cn2C1CC1 [Example I-75, 1-(4-(4-amino-7-cyclopropyl-7H-pyrrolo[2,3-d]pyrimidin-5-yl)-2-fluorophenyl)-3-(4-((4-aminopiperidin-1-yl)methyl)-3-(trifluoromethyl)phenyl)urea]
IL-1β release
  IC50: > 1000 nM
[1]
  IC50: 100 to 500 nM

## CN1CCN(Cc2ccc(NC(=O)Nc3ccc(-c4cn(C)c5ncnc(N)c45)cc3F)cc2C(F)(F)F)CC1 [Example I-18, 1-(4-(4-amino-7-methyl-7H-pyrrolo[2,3-d]pyrimidin-5-yl)-2-fluorophenyl)-3-(4-((4-methylpiperazin-1-yl)methyl)-3-(trifluoromethyl)phenyl)urea]
IL-1β release
  IC50: < 50 nM
[1]
  IC50: < 100 nM

## CN1CCN(Cc2ccc(NC(=O)Nc3ccc(-c4cn(C5CCN(S(C)(=O)=O)CC5)c5ncnc(N)c45)cc3F)cc2C(F)(F)F)CC1 [Example I-101, 1-(4-(4-amino-7-(1-(methylsulfonyl)piperidin-4-yl)-7H-pyrrolo[2,3-d]pyrimidin-5-yl)-2-fluorophenyl)-3-(4-((4-methylpiperazin-1-yl)methyl)-3-(trifluoromethyl)phenyl)urea]
IL-1β release
  IC50: 50 to 250 nM
[1]
  IC50: < 100 nM

## CC(=O)N1CCN(Cc2ccc(NC(=O)Nc3ccc(-c4cn(C5CC5)c5ncnc(N)c45)cc3F)cc2C(F)(F)F)CC1 [Example I-80, 1-(4-((4-acetylpiperazin-1-yl)methyl)-3-(trifluoromethyl)phenyl)-3-(4-(4-amino-7-cyclopropyl-7H-pyrrolo[2,3-d]pyrimidin-5-yl)-2-fluorophenyl)urea]
IL-1β release
  IC50: > 1000 nM
[1]
  IC50: 100 to 500 nM

## CN(C)C1CCN(Cc2ccc(NC(=O)Nc3ccc(-c4cn(C5CC5)c5ncnc(N)c45)cc3F)cc2C(F)(F)F)C1 (stereo not drawn) [Example I-45, 1-(4-(4-amino-7-cyclopropyl-7H-pyrrolo[2,3-d]pyrimidin-5-yl)-2-fluorophenyl)-3-(4-((3-(dimethylamino)pyrrolidin-1-yl)methyl)-3-(trifluoromethyl)phenyl)urea]
IL-1β release
  IC50: < 50 nM
[1]
  IC50: < 100 nM

## CN1CCN(Cc2ccc(NC(=O)Nc3ccc(-c4cn(C5CCN(S(=O)(=O)C6CC6)CC5)c5ncnc(N)c45)cc3F)cc2C(F)(F)F)CC1 [Example I-102, 1-(4-(4-amino-7-(1-(cyclopropylsulfonyl)piperidin-4-yl)-7H-pyrrolo[2,3-d]pyrimidin-5-yl)-2-fluorophenyl)-3-(4-((4-methylpiperazin-1-yl)methyl)-3-(trifluoromethyl)phenyl)urea]
IL-1β release
  IC50: 50 to 250 nM
[1]
  IC50: < 100 nM

## CN1CCC(Oc2ccc(NC(=O)Nc3ccc(-c4cn(C5CC5)c5ncnc(N)c45)cc3F)cc2C(F)(F)F)CC1 [Example I-47, 1-(4-(4-amino-7-cyclopropyl-7H-pyrrolo[2,3-d]pyrimidin-5-yl)-2-fluorophenyl)-3-(4-((1-methylpiperidin-4-yl)oxy)-3-(trifluoromethyl)phenyl)urea]
IL-1β release
  IC50: < 50 nM
[1]
  IC50: < 100 nM

## CN1CCN(Cc2ccc(NC(=O)Nc3ccc(-c4nn(C5CC5)c5ncnc(N)c45)cc3F)cc2C(F)(F)F)CC1 [Example I-28, 1-(4-(4-amino-1-cyclopropyl-1H-pyrazolo[3,4-d]pyrimidin-3-yl)-2-fluorophenyl)-3-(4-((4-methylpiperazin-1-yl)methyl)-3-(trifluoromethyl)phenyl)urea]
IL-1β release
  IC50: < 50 nM
[1]
  IC50: < 100 nM

## CN1CCN(Cc2ccc(NC(=O)Nc3ccc(-c4cn(CC(C)(C)O)c5ncnc(N)c45)cc3F)cc2C(F)(F)F)CC1 [Example I-15, 1-(4-(4-amino-7-(2-hydroxy-2-methylpropyl)-7H-pyrrolo[2,3-d]pyrimidin-5-yl)-2-fluorophenyl)-3-(4-((4-methylpiperazin-1-yl)methyl)-3-(trifluoromethyl)phenyl)urea]
IL-1β release
  IC50: < 50 nM
[1]
  IC50: < 100 nM

## CN1CCN(C(=O)c2ccc(NC(=O)Nc3ccc(-c4cn(C5CC5)c5ncnc(N)c45)cc3F)cc2C(F)(F)F)CC1 [Example I-10]
IL-1β release
  IC50: 50 to 250 nM
[1]
  IC50: 100 to 500 nM

## CC(C)n1nc(-c2ccc(NC(=O)Nc3ccc(CN4CCN(C)CC4)c(C(F)(F)F)c3)cc2)c2c(N)ncnc21 [Example I-24, 1-(4-(4-amino-1-isopropyl-1H-pyrazolo[3,4-d]pyrimidin-3-yl)phenyl)-3-(4-((4-methylpiperazin-1-yl)methyl)-3-(trifluoromethyl)phenyl)urea]
IL-1β release
  IC50: < 50 nM
[1]
  IC50: < 100 nM

## COCCn1cc(-c2ccc(NC(=O)Nc3ccc(CN4CCN(C)CC4)c(C(F)(F)F)c3)c(F)c2)c2c(N)ncnc21 [Example I-81, 1-(4-(4-amino-7-(2-methoxyethyl)-7H-pyrrolo[2,3-d]pyrimidin-5-yl)-2-fluorophenyl)-3-(4-((4-methylpiperazin-1-yl)methyl)-3-(trifluoromethyl)phenyl)urea]
IL-1β release
  IC50: < 50 nM
[1]
  IC50: < 100 nM

## CC(c1ccc(NC(=O)Nc2ccc(-c3cn(C4CC4)c4ncnc(N)c34)cc2F)cc1C(F)(F)F)N1CCN(C)CC1 (stereo not drawn) [Example I-6, 1-(4-(4-amino-7-cyclopropyl-7H-pyrrolo[2,3-d]pyrimidin-5-yl)-2-fluorophenyl)-3-(4-(1-(4-methylpiperazin-1-yl)ethyl)-3-(trifluoromethyl)phenyl)urea]
IL-1β release
  IC50: > 1000 nM
[1]
  IC50: > 2000 nM

## CN1CCN(Cc2cc(NC(=O)Nc3ccc(-c4nn(C5CC5)c5ncnc(N)c45)cc3F)cc(C(F)(F)F)c2)CC1 [Example I-87, 1-(4-(4-amino-1-cyclopropyl-1H-pyrazolo[3,4-d]pyrimidin-3-yl)-2-fluorophenyl)-3-(3-((4-methylpiperazin-1-yl)methyl)-5-(trifluoromethyl)phenyl)urea]
IL-1β release
  IC50: > 1000 nM
[1]
  IC50: < 100 nM

## COCCn1nc(-c2ccc(NC(=O)Nc3ccc(CN4CCN(C)CC4)c(C(F)(F)F)c3)c(F)c2)c2c(N)ncnc21 [Example I-77, 1-(4-(4-amino-1-(2-methoxyethyl)-1H-pyrazolo[3,4-d]pyrimidin-3-yl)-2-fluorophenyl)-3-(4-((4-methylpiperazin-1-yl)methyl)-3-(trifluoromethyl)phenyl)urea]
IL-1β release
  IC50: < 50 nM
[1]
  IC50: < 100 nM

## CN1CCN(Cc2ccc(NC(=O)Nc3ccc(-c4cn(C5CCN(C)C5)c5ncnc(N)c45)cc3F)cc2C(F)(F)F)CC1 (stereo not drawn) [Example I-20, 1-(4-(4-amino-7-(1-methylpyrrolidin-3-yl)-7H-pyrrolo[2,3-d]pyrimidin-5-yl)-2-fluorophenyl)-3-(4-((4-methylpiperazin-1-yl)methyl)-3-(trifluoromethyl)phenyl)urea]
IL-1β release
  IC50: < 50 nM
[1]
  IC50: < 100 nM
